# Measurements reported in patent US20250197389A1, “NITROGEN-CONTAINING HETEROCYCLIC COMPOUND” (SHANGHAI SHIJIANG BIOTECHNOLOGY CO., LTD, priority 2022, published 2025).
# Columns and labels:
# [1] = system: mPTP-active Daoy cell; assay: Inhibitory effect on mPTP-active Daoy cell (Promega CellTiter-Glo, intracellular ATP); type: cell-based, human; settings: Homo sapiens, Daoy, Daoy cell transfected with empty virus vector without PPIF shRNA
# [2] = system: mPTP-inactive Daoy cell; assay: Inhibitory effect on mPTP-inactive Daoy cell (PPIF shRNA; Promega CellTiter-Glo, intracellular ATP); type: cell-based, human; settings: Homo sapiens, Daoy, Daoy cell transfected with virus vector carrying PPIF shRNA
# Excerpt: The activity of mitochondria permeability transition pore (mPTP) was regulated by the PPIF protein. […] PPIF protein activity was restricted by the expression level of PPIF protein in cell.
SMILES,IC50 [1] [µM],IC50 [2] [µM]
COc1ccc2c(c1OCCCCCCNC(=O)OC(C)(C)C)C(C)N1CCc3cc4c(cc3C1=C2)OCO4 (stereo not drawn) [AB35415],4.79,2.26
COc1ccc2c(c1NCCc1ccccc1)C(C(Cl)(Cl)Cl)N1CCc3cc4c(cc3C1=C2)OCO4 (stereo not drawn) [AB35486],0.71,0.23
[2H]C1c2c(ccc(OC)c2OC)C=C2c3cc4c(cc3CCN21)OCO4 (stereo not drawn) [AB36415],2.18,1.07
COc1ccc2c(c1OCCCCCCNC(=O)OC(C)(C)C)C(C1CCCC1)N1CCc3cc4c(cc3C1=C2)OCO4 (stereo not drawn) [AB35455],3.51,1.47
COc1ccc2c(c1OCCCCCCCl)C(C)N1CCc3cc4c(cc3C1=C2)OCO4 (stereo not drawn) [AB31888],5.46,2.68
CCCCCC1=C2c3cc4c(cc3CCN2C(C2CCCC2)c2c1ccc(OC)c2OC)OCO4 (stereo not drawn) [AB35522],3.95,1.34
COc1ccc2c(c1OC)C(C)N1CCc3cc4c(cc3C1=C2)OCCO4 (stereo not drawn) [AB31898],9.54,4.43
CCC(CC)COc1c(OC)ccc2c1C(C(Cl)(Cl)Cl)N1CCc3cc4c(cc3C1=C2)OCO4 (stereo not drawn) [AB35521],2.4,1.03
COc1ccc2c(c1OC)CN1CCc3cc4c(cc3C1=C2Cc1ccc(OC(F)(F)F)cc1)OCO4 [AB31866],6.78,3.38
COc1ccc2c(c1OC/C=C(\C)CCC=C(C)C)C(C1CCCC1)N1CCc3cc4c(cc3C1=C2)OCO4 (stereo not drawn) [AB35438],1.86,0.84
COc1ccc2c(c1OC)C(C(Cl)(Cl)Cl)N1CCc3cc4c(cc3C1=C2CCCCCCBr)OCO4 (stereo not drawn) [AB35501],4.98,1.91
CCCCCCC1=C2c3cc4c(cc3CCN2C(C2CCCC2)c2c1ccc(OC)c2OC)OCO4 (stereo not drawn) [AB35489],1.68,0.79
CC1c2c(ccc3c2OCO3)C(CCCc2ccccc2)=C2c3cc4c(cc3CCN21)OCO4 (stereo not drawn) [AB35427],3.27,1.49
CCCOc1c(OC)ccc2c1C(C1CCCC1)N1CCc3cc4c(cc3C1=C2)OCO4 (stereo not drawn) [AB35512],4.27,1.57
COc1ccc2c(c1OCCCCCCBr)C(C1CCCC1)N1CCc3cc4c(cc3C1=C2)OCO4 (stereo not drawn) [AB35458],3.85,1.84
C=CCOc1c(OC)ccc2c1C(C(Cl)(Cl)Cl)N1CCc3cc4c(cc3C1=C2)OCO4 (stereo not drawn) [AB35534],3.92,1.28
COc1ccc2c(c1OC)C(C1CCCC1)N1CCc3cc4c(cc3C1=C2CCCCCCCl)OCO4 (stereo not drawn) [AB35500],3.46,1.71

SMILES,IC50 [1] [µM],IC50 [2] [µM]
CCC1=C2c3cc4c(cc3CCN2C(C(Cl)(Cl)Cl)c2c1ccc1c2OCO1)OCO4 (stereo not drawn) [AB36426],30.9,35
CCCCCCC1c2c(ccc(OC)c2OC)C=C2c3cc4c(cc3CCN21)OCCO4 (stereo not drawn) [AB31880],2.93,1.13
COc1ccc2c(c1OCCCCl)CN1CCc3cc4c(cc3C1=C2)OCO4 [AB35543],1.22,0.44
COc1ccc2c(c1OC/C=C(\C)CCC=C(C)C)C(C)N1CCc3cc4c(cc3C1=C2)OCO4 (stereo not drawn) [AB35402],1.72,0.81
COc1ccc2c(c1OC)C(C(Cl)(Cl)Cl)N1CCc3cc4c(cc3C1=C2CCCCc1ccccc1)OCO4 (stereo not drawn) [AB35469],2.41,1.11
COc1ccc2c(c1OCCCCl)C(C1CCC1)N1CCc3cc4c(cc3C1=C2)OCO4 (stereo not drawn) [AB35490],10.6,3.76
COc1ccc2c(c1OCCCBr)C(C)N1CCc3cc4c(cc3C1=C2)OCO4 (stereo not drawn) [AB31887],6.47,3.17
COc1ccc2c(c1OCCCCN)C(C)N1CCc3cc4c(cc3C1=C2)OCO4 (stereo not drawn) [AB35429],5.28,2.23
CCCCOc1c(OC)ccc2c1C(C(Cl)(Cl)Cl)N1CCc3cc4c(cc3C1=C2)OCO4 (stereo not drawn) [AB35494],1.28,0.36
COc1ccc2c(c1OCCCCCCBr)C(C)N1CCc3cc4c(cc3C1=C2)OCO4 (stereo not drawn) [AB31897],3.43,1.58
CCCCN1CCN(c2c(OC)ccc3c2C(C(Cl)(Cl)Cl)N2CCc4cc5c(cc4C2=C3)OCO5)CC1 (stereo not drawn) [AB35445],12.1,6.37
COc1ccc2c(c1OC)C(C(Cl)(Cl)Cl)N1CCc3cc4c(cc3C1=C2CCCc1ccccc1)OCCO4 (stereo not drawn) [AB35484],3.06,0.97
COc1ccc2c(c1OCCCCOc1ccccc1)C(C(Cl)(Cl)Cl)N1CCc3cc4c(cc3C1=C2)OCO4 (stereo not drawn) [AB35476],2.35,1.08
COc1ccc2c(c1OCCCBr)C(C(Cl)(Cl)Cl)N1CCc3cc4c(cc3C1=C2)OCO4 (stereo not drawn) [AB35466],2.21,0.91
COc1ccc2c(c1OCCBr)CN1CCc3cc4c(cc3C1=C2)OCO4 [AB36403],1.66,0.54
COc1ccc2c(c1N1CCC(C)CC1)CN1CCc3cc4c(cc3C1=C2)OCO4 [AB35545],0.53,0.2
